Data published in US20240226319A1, “EGFR TARGETING FC ANTIGEN BINDING FRAGMENT-DRUG CONJUGATES” (MERCK PATENT GMBH, priority 2021, published 2024).

Columns and labels:
[1] = test system: EGFR positive (MDA MB 468 and A431) and EGFR negative (MCF 7) cells; experiment: Cellular binding analysis by flow cytometry; assay type: cell-based, human; details: 100 nM, 60 min at 4° C., AF488-labeled detection antibody
[2] = Thermal unfolding by nanoDSF; assay type: physicochemical; details: PBS pH 6.8, 20 to 95° C. at 1° C./min
Procedure: FIG. 10 Thermal stability of Fcabs and huFc control molecule. The first derivative of thermal unfolding curves (A) as well as the unfolding transition midpoints (Tm) (B) are shown. To determine thermal unfolding, Fcabs and huFc (PBS pH 6.8) were loaded into nanoDSF grade standard capillaries which were then transferred into a Prometheus NT.PLEX nanoDSF (NanoTemper Technologies) instrument. Samples were subjected to a linear thermal ramp from 20° C. to 95° C. at a slope of 1° C./min with simultaneous recording of fluorescence at 350 and 330 nm. Unfolding transition midpoints (Tm) were determined from the first derivative of the fluorescence ratio 350 nm/330 nm. All samples were measured in duplicates. n.d.—not detected
As a negative control, we included an unmodified human Fc (huFc) fragment. As EGFR-binding references, a Cetuximab-based full length IgG (C-IgG) and a Cetuximab-derived Fab (C-Fab) fragment, both equipped with a sortase A (SrtA) recognition motif (LPETG) at the C-terminal end of the light chain, were included. […] Moreover, we evaluated functional and selective cellular binding of the purified constructs (FIG. 11, FIG. 12). […] To ensure comparability between individual fluorescence intensities resulting from differently labeled constructs, the fluorescence signals were normalized. […]

For “huFc: Modified human IgG1 Fc fragment (D265A), negative control, SEQ ID No. 7”, which cellular binding [1] is on record?
Its cellular binding is “do not show any binding”.

And the “unfolding transition midpoint Tm,1” value [2]?
Its value is 66 °C.
